For the assay, the system named is CD8F1 mice, subcutaneous mammary adenocarcinoma, T/C%. The assay is described as follows: NCI In Vivo Anticancer Drug Screen. Data for tumor model Mammary Adenocarcinoma CD8F1 (subcutaneous) in CD8F1. Particulars: higher = larger tumour. Put shortly:
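Compound-treated versus vehicle-treated mice with transplantable tumors; survival or tumor size compared as T/C.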

Several values for one entry are separate records, joined by “and”; a condition that tells them apart may be missing. Equal entries are not always repeated. Results filed as inconclusive are left out.

On to `COc1cc(NS(C)(=O)=O)ccc1Nc1c2ccccc2nc2ccccc12`, for which the T/C by setting is: (endpoint: mean tumor weight (est.), dose: 4.0 mg/kg/injection, schedule: Q07DX004 (ip), vehicle: saline) 158 % of control; (endpoint: mean tumor weight (est.), dose: 8.0 mg/kg/injection, schedule: Q07DX004 (ip), vehicle: saline) 120 % of control; (endpoint: mean tumor weight (est.), dose: 16.0 mg/kg/injection, schedule: Q07DX004 (ip), vehicle: saline) 109 % of control; (endpoint: mean tumor weight (est.), dose: 32.0 mg/kg/injection, schedule: Q07DX004 (ip), vehicle: saline) 79 % of control; (endpoint: mean tumor weight, dose: 2.0 mg/kg/injection, schedule: Q05DX005 (ip), vehicle: saline) 66 % of control; (endpoint: mean tumor weight, dose: 4.0 mg/kg/injection, schedule: Q05DX005 (ip), vehicle: saline) 82 % of control. Moreover, the T/C is, setting by setting: (endpoint: mean tumor weight, dose: 4.0 mg/kg/injection, schedule: Q07DX004 (ip), vehicle: saline) 51 % of control; (endpoint: mean tumor weight, dose: 8.0 mg/kg/injection, schedule: Q05DX005 (ip), vehicle: saline) 62 % of control; (endpoint: mean tumor weight, dose: 8.0 mg/kg/injection, schedule: Q07DX004 (ip), vehicle: saline) 28 % of control; (endpoint: mean tumor weight, dose: 16.0 mg/kg/injection, schedule: Q05DX005 (ip), vehicle: saline) 39 % of control; (endpoint: mean tumor weight, dose: 16.0 mg/kg/injection, schedule: Q07DX004 (ip), vehicle: saline) 23 % of control; (endpoint: mean tumor weight, dose: 32.0 mg/kg/injection, schedule: Q07DX004 (ip), vehicle: saline) 18 % of control. For the same molecule, the T/C (endpoint: median tumor weight (est.), dose: 1.0 mg/kg/injection, schedule: Q01DX005 (ip), vehicle: Klucel (hydroxypropylcellulose) (HPC)) is 73 % of control; the T/C (endpoint: median tumor weight (est.), dose: 2.0 mg/kg/injection, schedule: Q01DX005 (ip), vehicle: Klucel (hydroxypropylcellulose) (HPC)) was 94 % of control; the T/C (endpoint: median tumor weight (est.), dose: 2.0 mg/kg/injection, schedule: Q07DX005 (ip), vehicle: Klucel (hydroxypropylcellulose) (HPC)) is 195 % of control; the T/C (endpoint: median tumor weight (est.), dose: 4.0 mg/kg/injection, schedule: Q01DX005 (ip), vehicle: Klucel (hydroxypropylcellulose) (HPC)) was 80 % of control; the T/C (endpoint: median tumor weight (est.), dose: 4.0 mg/kg/injection, schedule: Q04DX005 (ip), vehicle: Klucel (hydroxypropylcellulose) (HPC)) is 119 % of control; the T/C (endpoint: median tumor weight (est.), dose: 4.0 mg/kg/injection, schedule: Q07DX005 (ip), vehicle: Klucel (hydroxypropylcellulose) (HPC)) is 42 % of control and 65 % of control. For the same molecule, the T/C by setting is: (endpoint: median tumor weight (est.), dose: 8.0 mg/kg/injection, schedule: Q01DX005 (ip), vehicle: Klucel (hydroxypropylcellulose) (HPC)) 59 % of control; (endpoint: median tumor weight (est.), dose: 8.0 mg/kg/injection, schedule: Q04DX005 (ip), vehicle: Klucel (hydroxypropylcellulose) (HPC)) 35 % of control; (endpoint: median tumor weight (est.), dose: 16.0 mg/kg/injection, schedule: Q01DX001 (ip), vehicle: Klucel (hydroxypropylcellulose) (HPC)) 93 % of control; (endpoint: median tumor weight (est.), dose: 16.0 mg/kg/injection, schedule: Q01DX005 (ip), vehicle: Klucel (hydroxypropylcellulose) (HPC)) 38 % of control; (endpoint: median tumor weight (est.), dose: 16.0 mg/kg/injection, schedule: Q04DX005 (ip), vehicle: Klucel (hydroxypropylcellulose) (HPC)) 17 % of control; (endpoint: median tumor weight (est.), dose: 32.0 mg/kg/injection, schedule: Q01DX001 (ip), vehicle: Klucel (hydroxypropylcellulose) (HPC)) 35 % of control. For the same molecule, the T/C (endpoint: median tumor weight (est.), dose: 32.0 mg/kg/injection, schedule: Q07DX005 (ip), vehicle: Klucel (hydroxypropylcellulose) (HPC)) is 3 % of control and 10 % of control; the T/C (endpoint: median tumor weight (est.), dose: 64.0 mg/kg/injection, schedule: Q01DX001 (ip), vehicle: Klucel (hydroxypropylcellulose) (HPC)) was 39 % of control.

Turning to `CCCCC1CCCCCCc2[nH]c(/C=C3\N=C(c4ccc[nH]4)C=C3OC)cc21` (stereo unspecified), the T/C reads like this: (endpoint: median tumor weight change, dose: 0.38 mg/kg/injection, schedule: Q01DX001 (ip), vehicle: saline with Tween-80) 92 % of control; (endpoint: median tumor weight change, dose: 0.75 mg/kg/injection, schedule: Q01DX001 (ip), vehicle: saline with Tween-80) 78 % of control; (endpoint: median tumor weight change, dose: 1.5 mg/kg/injection, schedule: Q01DX001 (ip), vehicle: saline with Tween-80) 104 % of control; (endpoint: median tumor weight change, dose: 3.0 mg/kg/injection, schedule: Q01DX001 (ip), vehicle: saline with Tween-80) 102 % of control.

With `COc1ccc2[nH]c3ccc4cc[n+](CCN5CCC(C6CCN(CC[n+]7ccc8ccc9[nH]c%10ccc(OC)cc%10c9c8c7)CC6)CC5)cc4c3c2c1`, the T/C reads like this: (endpoint: median tumor weight change, dose: 62.5 mg/kg/injection, schedule: Q01DX001 (ip), vehicle: Klucel (hydroxypropylcellulose) (HPC)) 58 % of control; (endpoint: median tumor weight change, dose: 125.0 mg/kg/injection, schedule: Q01DX001 (ip), vehicle: Klucel (hydroxypropylcellulose) (HPC)) 68 % of control.

On to `N#CC(OC1OC(COC2OC(CO)C(O)C(O)C2O)C(O)C(O)C1O)c1ccccc1` (stereo unspecified), for which the T/C is 71 % of control (endpoint: median tumor weight (est.), dose: 50.0 mg/kg/injection, schedule: Q07DX005 (ip), vehicle: water); 88 % of control (endpoint: median tumor weight (est.), dose: 100.0 mg/kg/injection, schedule: Q07DX005 (ip), vehicle: water); 112 % of control (endpoint: median tumor weight (est.), dose: 200.0 mg/kg/injection, schedule: Q07DX005 (ip), vehicle: water); 114 % of control (endpoint: median tumor weight (est.), dose: 400.0 mg/kg/injection, schedule: Q07DX005 (ip), vehicle: water); 82 % of control (endpoint: median tumor weight (est.), dose: 800.0 mg/kg/injection, schedule: Q07DX005 (ip), vehicle: water).

In the case of `CCOC(=O)C1(c2ccccc2)C(=O)Oc2ccccc21` (stereo unspecified), the T/C reads like this: (endpoint: median tumor weight (est.), dose: 12.5 mg/kg/injection, schedule: Q07DX005 (ip), vehicle: saline with Tween-80) 84 % of control; (endpoint: median tumor weight (est.), dose: 25.0 mg/kg/injection, schedule: Q07DX005 (ip), vehicle: saline with Tween-80) 69 % of control; (endpoint: median tumor weight (est.), dose: 50.0 mg/kg/injection, schedule: Q07DX005 (ip), vehicle: saline with Tween-80) 97 % of control; (endpoint: median tumor weight (est.), dose: 100.0 mg/kg/injection, schedule: Q07DX005 (ip), vehicle: saline with Tween-80) 119 % of control; (endpoint: median tumor weight (est.), dose: 200.0 mg/kg/injection, schedule: Q07DX005 (ip), vehicle: saline with Tween-80) 113 % of control; (endpoint: median tumor weight (est.), dose: 400.0 mg/kg/injection, schedule: Q07DX005 (ip), vehicle: saline with Tween-80) 70 % of control. Also, the T/C reads like this: (endpoint: median tumor weight change, dose: 125.0 mg/kg/injection, schedule: Q01DX001 (ip), vehicle: saline with Tween-80) 82 % of control; (endpoint: median tumor weight change, dose: 500.0 mg/kg/injection, schedule: Q01DX001 (ip), vehicle: saline with Tween-80) 71 % of control; (endpoint: median tumor weight change, dose: 1000.0 mg/kg/injection, schedule: Q01DX001 (ip), vehicle: saline with Tween-80) 61 % of control; (endpoint: median tumor weight change, dose: 2000.0 mg/kg/injection, schedule: Q01DX001 (ip), vehicle: saline with Tween-80) 100 % of control.

For `O=C/C(Cl)=C(/Cl)C(=O)O`, the T/C was 190 % of control (endpoint: median tumor weight (est.), dose: 2.5 mg/kg/injection, schedule: Q07DX005 (ip), vehicle: saline with Tween-80); 121 % of control (endpoint: median tumor weight (est.), dose: 5.0 mg/kg/injection, schedule: Q07DX005 (ip), vehicle: saline with Tween-80); 245 % of control (endpoint: median tumor weight (est.), dose: 10.0 mg/kg/injection, schedule: Q07DX005 (ip), vehicle: saline with Tween-80).

Take `CN(C)CCN1C(=O)c2cccc3cc([N+](=O)[O-])cc(c23)C1=O`: the T/C by setting is: (endpoint: median tumor weight change, dose: 7.5 mg/kg/injection, schedule: Q01DX001 (ip), vehicle: saline with Tween-80) 57 % of control; (endpoint: median tumor weight change, dose: 15.0 mg/kg/injection, schedule: Q01DX001 (ip), vehicle: saline with Tween-80) 91 % of control; (endpoint: median tumor weight change, dose: 30.0 mg/kg/injection, schedule: Q01DX001 (ip), vehicle: saline with Tween-80) 55 % of control.

Turning to `Nc1n[nH]c(N)n1`, the T/C is, setting by setting: (endpoint: mean tumor weight, dose: 25.0 mg/kg/injection, schedule: Q01DX009 (ip), vehicle: saline) 153 % of control; (endpoint: mean tumor weight, dose: 100.0 mg/kg/injection, schedule: Q01DX009 (ip), vehicle: saline) 207 % of control; (endpoint: median tumor weight (est.), dose: 100.0 mg/kg/injection, schedule: Q07DX005 (ip), vehicle: saline) 50 % of control and 67 % of control; (endpoint: median tumor weight (est.), dose: 200.0 mg/kg/injection, schedule: Q07DX005 (ip), vehicle: saline) 58 % of control and 68 % of control; (endpoint: median tumor weight (est.), dose: 1600.0 mg/kg/injection, schedule: Q07DX005 (ip), vehicle: saline) 27 % of control and 51 % of control; (endpoint: median tumor weight change, dose: 250.0 mg/kg/injection, schedule: Q01DX001 (ip), vehicle: saline) 75 % of control. Further, the T/C was 121 % of control (endpoint: median tumor weight change, dose: 500.0 mg/kg/injection, schedule: Q01DX001 (ip), vehicle: saline); 120 % of control (endpoint: median tumor weight change, dose: 1000.0 mg/kg/injection, schedule: Q01DX001 (ip), vehicle: saline); 174 % of control (endpoint: median tumor weight change, dose: 2000.0 mg/kg/injection, schedule: Q01DX001 (ip), vehicle: saline).

For `COc1cc2c(c(OC)c1OC)-c1ccc(OC)c(=O)cc1[C@@H](NC(C)=O)CC2`, the T/C is, setting by setting: (endpoint: median tumor weight (est.), dose: 0.75 mg/kg/injection, schedule: Q07DX005 (ip), vehicle: saline) 82 % of control and 97 % of control; (endpoint: median tumor weight (est.), dose: 1.5 mg/kg/injection, schedule: Q07DX005 (ip), vehicle: saline) 49 % of control; (endpoint: median tumor weight change, dose: 3.0 mg/kg/injection, schedule: Q01DX001 (ip), vehicle: suspension in saline) 21 % of control; (endpoint: median tumor weight change, dose: 6.25 mg/kg/injection, schedule: Q01DX001 (ip), vehicle: saline) -47 % of control.

The values are drawn from PubChem BioAssay AID220 (DTP/NCI, 2004).
